Assays:
Format in all cases: functional
DU-145 = experiment: Growth inhibition of human DU145 cells after 48 hrs by sulforhodamine B assay; details: DU-145, 48 h; for TGI: read-out: pTGI (converted)
SF-295 = experiment: Growth inhibition of human SF295 cells after 48 hrs by sulforhodamine B assay; details: SF-295, 48 h; for TGI: read-out: pTGI (converted)
TK-10 = experiment: Growth inhibition of human TK10 cells after 48 hrs by sulforhodamine B assay; details: TK-10, 48 h; for TGI: read-out: pTGI (converted)
NCI-H460 = experiment: Growth inhibition of human NCI-H460 cells after 48 hrs by sulforhodamine B assay; details: NCI-H460, 48 h; for TGI: read-out: pTGI (converted)
COLO 205 = experiment: Growth inhibition of human COLO205 cells after 48 hrs by sulforhodamine B assay; details: COLO 205, 48 h; for TGI: read-out: pTGI (converted)
PC-3 = experiment: Growth inhibition of human PC3 cells after 48 hrs by sulforhodamine B assay; details: PC-3, 48 h; for CC50: read-out: pLC50 (the source's name) (converted); for TGI: read-out: pTGI (converted)
NCI-H226 = experiment: Growth inhibition of human NCI-H226 cells after 48 hrs by sulforhodamine B assay; details: NCI-H226, 48 h; for TGI: read-out: pTGI (converted)
MCF7 = experiment: Growth inhibition of human MCF7 cells after 48 hrs by sulforhodamine B assay; details: MCF7, 48 h; for TGI: read-out: pTGI (converted)
Malme-3M = experiment: Growth inhibition of human MALME-3M cells after 48 hrs by sulforhodamine B assay; details: for TGI: read-out: pTGI (converted)
UO-31 = experiment: Growth inhibition of human UO31 cells after 48 hrs by sulforhodamine B assay; details: UO-31, 48 h; for TGI: read-out: pTGI (converted)
HCT-15 = experiment: Growth inhibition of human HCT15 cells after 48 hrs by sulforhodamine B assay; details: HCT-15, 48 h; for TGI: read-out: pTGI (converted)
SN12C = experiment: Growth inhibition of human SN12C cells after 48 hrs by sulforhodamine B assay; details: for TGI: read-out: pTGI (converted)
SNB-75 = experiment: Growth inhibition of human SNB75 cells after 48 hrs by sulforhodamine B assay; details: SNB-75, 48 h; for TGI: read-out: pTGI (converted)
KM12 = experiment: Growth inhibition of human KM12 cells after 48 hrs by sulforhodamine B assay; details: KM12, 48 h; for TGI: read-out: pTGI (converted)
HOP-62 = experiment: Growth inhibition of human HOP62 cells after 48 hrs by sulforhodamine B assay; details: HOP-62, 48 h; for TGI: read-out: pTGI (converted)
T47D = experiment: Growth inhibition of human T47D cells after 48 hrs by sulforhodamine B assay; details: for TGI: read-out: pTGI (converted)
786-0 = experiment: Growth inhibition of human 786-0 cells after 48 hrs by sulforhodamine B assay; details: 786-0, 48 h; for CC50: read-out: pLC50 (the source's name) (converted); for TGI: read-out: pTGI (converted)
M14 = experiment: Growth inhibition of human M14 cells after 48 hrs by sulforhodamine B assay; details: M14, 48 h
K562 = experiment: Growth inhibition of human K562 cells after 48 hrs by sulforhodamine B assay; details: K562, 48 h; for TGI: read-out: pTGI (converted)
NCI-H322M = experiment: Growth inhibition of human NCI-H322M cells after 48 hrs by sulforhodamine B assay; details: for TGI: read-out: pTGI (converted)
MOLT-4 = experiment: Growth inhibition of human MOLT4 cells after 48 hrs by sulforhodamine B assay; details: MOLT-4, 48 h; for TGI: read-out: pTGI (converted)
ACHN = experiment: Growth inhibition of human ACHN cells after 48 hrs by sulforhodamine B assay; details: for TGI: read-out: pTGI (converted)
HT-29 = experiment: Growth inhibition of human HT-29 cells after 48 hrs by sulforhodamine B assay; details: HT-29, 48 h; for TGI: read-out: pTGI (converted)
UACC-62 = experiment: Growth inhibition of human UACC62 cells after 48 hrs by sulforhodamine B assay; details: UACC-62, 48 h; for TGI: read-out: pTGI (converted)
SR = experiment: Growth inhibition of human SR cells after 48 hrs by sulforhodamine B assay; details: for TGI: read-out: pTGI (converted)
NCI/ADR-RES = experiment: Growth inhibition of human NCI/ADR-RES cells after 48 hrs by sulforhodamine B assay
MDA-MB-468 = experiment: Growth inhibition of human MDA-MB-468 cells after 48 hrs by sulforhodamine B assay; details: MDA-MB-468, 48 h
UACC-257 = experiment: Growth inhibition of human UACC257 cells after 48 hrs by sulforhodamine B assay; details: UACC-257, 48 h; for TGI: read-out: pTGI (converted)

## COc1cc(/C=C/c2cc3c(c(SC)c2)O[C@]2(C)CC[C@@H](O)C(C)(C)[C@H]2C3)cc(O)c1C/C=C(\C)CCC=C(C)C
DU-145
  GI50: 8.71 µM
  LC50: 93.3 µM
  TGI: 29.5 µM
SF-295
  LC50: > 100 µM
  TGI: 25.1 µM
SF-295; read-out: GI50
  GI50: 3.8 µM
SF-295; read-out: pGI50 (converted)
  GI50: 3.02 µM
TK-10
  GI50: 20.9 µM
  LC50: > 100 µM
  TGI: > 100 µM
NCI-H460
  GI50: 3.47 µM
  LC50 (concentration killing 50% of cells): 51.3 µM
  TGI: 13.8 µM
COLO 205
  GI50: 1.35 µM
  LC50: 7.08 µM
  TGI: 3.09 µM
PC-3
  GI50: 6.03 µM
  CC50: > 100 µM
  TGI: 51.3 µM
NCI-H226
  GI50: 15.1 µM
  LC50: > 100 µM
  TGI: 39.8 µM
MCF7
  GI50: 7.76 µM
  LC50: > 100 µM
  TGI: 45.7 µM
Malme-3M
  GI50: 30.9 µM
  LC50: > 100 µM
  TGI: > 100 µM
UO-31
  GI50: 8.91 µM
  LC50: > 100 µM
  TGI: > 100 µM
HCT-15
  GI50: 2.95 µM
  LC50: 72.4 µM
  TGI: 8.91 µM
SN12C
  GI50: 10.5 µM
  LC50: > 100 µM
  TGI: 32.4 µM
SNB-75
  GI50: 3.8 µM
  LC50: > 100 µM
  TGI: 33.1 µM
KM12
  GI50: 4.27 µM
  LC50: 83.2 µM
  TGI: 20.4 µM
HOP-62
  GI50: 12 µM
  LC50: 79.4 µM
  TGI: 30.9 µM
T47D
  GI50: 14.5 µM
  LC50: > 100 µM
  TGI: 67.6 µM
786-0
  GI50: 5.01 µM
  CC50: 67.6 µM
  TGI: 21.4 µM
M14
  GI50: 8.13 µM
  LC50: 95.5 µM
M14; read-out: pTGI (converted)
  TGI: 28.8 µM
K562
  GI50: 4.27 µM
  LC50: > 100 µM
  TGI: > 100 µM
NCI-H322M
  GI50: 51.3 µM
  LC50: > 100 µM
  TGI: > 100 µM
MOLT-4
  GI50: 4.27 µM
  LC50: > 100 µM
  TGI: 100 µM
ACHN
  GI50: 10.7 µM
  LC50: > 100 µM
  TGI: > 100 µM
HT-29
  GI50: 2.09 µM
  LC50 (concentration killing 50% of cells): > 100 µM
  TGI: 16.2 µM
UACC-62
  GI50: 7.08 µM
  LC50 (50% lethal concentration): > 100 µM
  TGI: 28.8 µM
SR
  GI50: 3.8 µM
  LC50: > 100 µM
  TGI: > 100 µM
NCI/ADR-RES
  GI50: 11 µM
  LC50: > 100 µM
NCI/ADR-RES; read-out: pTGI (converted)
  TGI: 38 µM
MDA-MB-468
  GI50: 4.57 µM
  LC50: 87.1 µM
MDA-MB-468; read-out: pTGI (converted)
  TGI: 20 µM
UACC-257
  GI50: 14.5 µM
  LC50: > 100 µM
  TGI: 64.6 µM

## COc1cc(/C=C/c2cc3c(c(OC)c2)O[C@]2(C)CC[C@@H](O)C(C)(C)[C@H]2C3)cc(O)c1C/C=C(\C)CCC=C(C)C
DU-145
  GI50: 3.8 µM
  LC50: 22.9 µM
  TGI: 10.2 µM
SF-295
  LC50: 3.89 µM
  TGI: 0.871 µM
SF-295; read-out: GI50
  GI50: 0.19 µM
SF-295; read-out: pGI50 (converted)
  GI50: 0.186 µM
TK-10
  GI50: 7.08 µM
  LC50: 32.4 µM
  TGI: 15.1 µM
NCI-H460
  GI50: 1.32 µM
  LC50 (concentration killing 50% of cells): 16.2 µM
  TGI: 5.25 µM
COLO 205
  GI50: 0.562 µM
  LC50: 2.4 µM
  TGI: 1.17 µM
PC-3
  GI50: 0.741 µM
  CC50: 37.2 µM
  TGI: 10 µM
NCI-H226
  GI50: 5.89 µM
  LC50: 25.7 µM
  TGI: 12.3 µM
MCF7
  GI50: 1.02 µM
  LC50: 17.4 µM
  TGI: 5.89 µM
Malme-3M
  GI50: 5.13 µM
  LC50: 36.3 µM
  TGI: 13.5 µM
UO-31
  GI50: 1.12 µM
  LC50: 21.9 µM
  TGI: 7.59 µM
HCT-15
  GI50: 1.29 µM
  LC50: 17.8 µM
  TGI: 6.03 µM
SN12C
  GI50: 5.89 µM
  LC50: 28.8 µM
  TGI: 13.2 µM
SNB-75
  GI50: 3.63 µM
  LC50: 30.2 µM
  TGI: 11.7 µM
KM12
  GI50: 1.35 µM
  LC50: 18.6 µM
  TGI: 6.03 µM
HOP-62
  GI50: 0.832 µM
  LC50: 11 µM
  TGI: 2.82 µM
T47D
  GI50: 2.29 µM
  LC50: 23.4 µM
  TGI: 9.12 µM
786-0
  GI50: 0.123 µM
  CC50: 4.17 µM
  TGI: 0.363 µM
K562
  GI50: 1.2 µM
  LC50: 22.9 µM
  TGI: 4.07 µM
NCI-H322M
  GI50: 6.76 µM
  LC50: > 50.1 µM
  TGI: 18.6 µM
MOLT-4
  GI50: 0.891 µM
  LC50: 33.1 µM
  TGI: 2.75 µM
ACHN
  GI50: 2.75 µM
  LC50: 21.4 µM
  TGI: 9.33 µM
HT-29
  GI50: 0.398 µM
  LC50 (concentration killing 50% of cells): 13.2 µM
  TGI: 2.63 µM
UACC-62
  GI50: 1.07 µM
  LC50 (50% lethal concentration): 13.8 µM
  TGI: 3.8 µM
SR
  GI50: 1.02 µM
  LC50: 22.4 µM
  TGI: 3.16 µM
UACC-257
  GI50: 6.76 µM
  LC50: 29.5 µM
  TGI: 14.1 µM

Reference: ChEMBL document CHEMBL1926642, “Relevance of the C-5 position to schweinfurthin induced cytotoxicity” (2011)
